Molecular target: ROCK2 (human) (UniProt O75116)
Experiment: Inhibition of ROCK2 Kinase Activity

ROCK2 (human), sequence (O75116 whole entry, looked up): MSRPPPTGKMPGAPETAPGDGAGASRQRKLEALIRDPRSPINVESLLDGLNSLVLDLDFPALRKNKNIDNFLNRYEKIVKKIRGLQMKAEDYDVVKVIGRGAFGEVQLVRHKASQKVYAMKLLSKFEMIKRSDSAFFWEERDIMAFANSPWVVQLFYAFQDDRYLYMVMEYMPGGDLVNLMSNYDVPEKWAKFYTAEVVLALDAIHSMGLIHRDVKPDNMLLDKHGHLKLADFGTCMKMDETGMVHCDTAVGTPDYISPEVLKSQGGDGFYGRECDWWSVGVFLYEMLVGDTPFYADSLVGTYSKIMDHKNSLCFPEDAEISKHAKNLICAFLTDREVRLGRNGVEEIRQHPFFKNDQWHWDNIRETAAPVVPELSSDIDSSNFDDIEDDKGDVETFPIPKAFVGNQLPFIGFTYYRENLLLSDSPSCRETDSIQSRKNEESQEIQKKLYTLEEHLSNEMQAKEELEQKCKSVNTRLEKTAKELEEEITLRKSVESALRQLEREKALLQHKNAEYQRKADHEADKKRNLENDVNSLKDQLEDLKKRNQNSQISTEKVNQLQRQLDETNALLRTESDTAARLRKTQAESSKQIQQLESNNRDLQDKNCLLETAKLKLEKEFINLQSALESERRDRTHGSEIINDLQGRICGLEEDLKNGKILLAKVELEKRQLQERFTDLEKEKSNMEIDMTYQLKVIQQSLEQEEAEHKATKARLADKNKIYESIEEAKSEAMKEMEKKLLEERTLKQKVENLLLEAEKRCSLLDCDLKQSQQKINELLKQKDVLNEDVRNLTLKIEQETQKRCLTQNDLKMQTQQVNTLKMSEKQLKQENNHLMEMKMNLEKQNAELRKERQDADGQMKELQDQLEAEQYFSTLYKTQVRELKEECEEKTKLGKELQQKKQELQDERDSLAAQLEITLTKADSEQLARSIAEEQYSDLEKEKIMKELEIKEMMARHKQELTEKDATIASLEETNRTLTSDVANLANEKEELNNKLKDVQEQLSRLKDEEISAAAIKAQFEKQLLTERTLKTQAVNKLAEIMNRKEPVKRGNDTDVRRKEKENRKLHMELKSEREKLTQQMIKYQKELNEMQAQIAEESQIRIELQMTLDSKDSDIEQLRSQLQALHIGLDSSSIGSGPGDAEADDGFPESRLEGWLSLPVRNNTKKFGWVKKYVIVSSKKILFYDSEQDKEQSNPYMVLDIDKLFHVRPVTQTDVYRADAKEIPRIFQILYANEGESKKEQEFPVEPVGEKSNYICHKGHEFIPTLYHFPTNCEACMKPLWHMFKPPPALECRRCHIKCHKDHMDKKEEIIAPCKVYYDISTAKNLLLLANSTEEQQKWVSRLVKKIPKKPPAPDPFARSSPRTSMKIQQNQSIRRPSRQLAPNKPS

NC(CNC(=O)Nc1ccc2ccccc2c1)c1ccc(C(=O)Nc2ccncc2)cc1 (stereo unspecified)
IC50: 50 to 500 nM

NC(CNC(=O)Cc1ccc(F)cc1)c1ccc(C(=O)Nc2ccncc2)cc1 (stereo unspecified)
IC50: 50 to 500 nM

NC(CNC(=O)CC1Cc2ccccc2C1)c1ccc(C(=O)Nc2ccncc2)cc1 (stereo unspecified)
IC50: 50 to 500 nM

CN(CC(N)c1ccc(C(=O)Nc2ccncc2)cc1)C(=O)C(C)(C)c1ccc(F)c(F)c1 (stereo unspecified)
IC50: 500 to 5000 nM

N[C@@H](CC(=O)NCc1ccc(F)cc1)c1ccc(C(=O)Nc2ccncc2)cc1
IC50: 50 to 500 nM

NC(CC(=O)NCCc1c[nH]c2ccccc12)c1ccc(C(=O)Nc2ccncc2)cc1 (stereo unspecified)
IC50: 50 to 500 nM

CN(CCc1ccccc1)C(=O)CC(N)c1ccc(C(=O)Nc2ccncc2)cc1 (stereo unspecified)
IC50: 50 to 500 nM

NC(CNC(=S)Nc1ccc(C(F)(F)F)cc1)c1ccc(C(=O)Nc2ccncc2)cc1 (stereo unspecified)
IC50: 500 to 5000 nM

COc1ccc(OC)c(CCNC(=O)CC(N)c2ccc(C(=O)Nc3ccncc3)cc2)c1 (stereo unspecified)
IC50: 50 to 500 nM

NC(c1ccc(C(=O)Nc2ccncc2)cc1)C1CCCN1C(=O)Cc1ccc(-c2ccccc2)cc1 (stereo unspecified)
IC50: 500 to 5000 nM

NC(CNC(=O)CCc1ccccc1)c1ccc(C(=O)Nc2ccncc2)cc1 (stereo unspecified)
IC50: 50 to 500 nM

NC(CC(=O)NC1c2ccccc2-c2ccccc21)c1ccc(C(=O)Nc2ccncc2)cc1 (stereo unspecified)
IC50: 50 to 500 nM

Cc1ccc(CN2CCC(NC(=O)CC(N)c3ccc(C(=O)Nc4ccncc4)cc3)CC2)s1 (stereo unspecified)
IC50: 50 to 500 nM

CC(C)(C(=O)NCC(N)c1ccc(C(=O)Nc2ccncc2)cc1)c1cccs1 (stereo unspecified)
IC50: 50 to 500 nM

Cc1ccc(CC(=O)N(C)CC(N)c2ccc(C(=O)Nc3ccncc3)cc2)cc1 (stereo unspecified)
IC50: 500 to 5000 nM

NC(CNC(=O)c1cccnc1)c1ccc(C(=O)Nc2ccncc2)cc1 (stereo unspecified)
IC50: 500 to 5000 nM

CC(=O)NCCNC(=O)CC(N)c1ccc(C(=O)Nc2ccncc2)cc1 (stereo unspecified)
IC50: 50 to 500 nM

NC(c1ccc(C(=O)Nc2ccncc2)cc1)C1CCCN1C(=O)C1CCOc2ccc(Cl)cc21 (stereo unspecified)
IC50: 500 to 5000 nM

NC(CC(=O)NCc1ccccc1Br)c1ccc(C(=O)Nc2ccncc2)cc1 (stereo unspecified)
IC50: 50 to 500 nM

NC(CNC(=O)c1ccc(Cl)cc1)c1ccc(C(=O)Nc2ccncc2)cc1 (stereo unspecified)
IC50: 500 to 5000 nM

NC(CNC(=O)C1CC1)c1ccc(C(=O)Nc2ccncc2)cc1 (stereo unspecified)
IC50: 500 to 5000 nM

CN(CC(N)c1ccc(C(=O)Nc2ccncc2)cc1)C(=O)Cc1ccc(F)cc1F (stereo unspecified)
IC50: 500 to 5000 nM

NC(c1ccc(C(=O)Nc2ccncc2)cc1)C1CCCN1C(=O)C(c1ccccc1)C1CCCC1 (stereo unspecified)
IC50: 500 to 5000 nM

NC(CC(=O)NCc1ccccc1OC(F)(F)F)c1ccc(C(=O)Nc2ccncc2)cc1 (stereo unspecified)
IC50: 50 to 500 nM

Cc1ccc(CNC(=O)CC(N)c2ccc(C(=O)Nc3ccncc3)cc2)cc1Cl (stereo unspecified)
IC50: 50 to 500 nM

NC(c1ccc(C(=O)Nc2ccncc2)cc1)C1CCCN1C(=O)C1CCOc2ccccc21 (stereo unspecified)
IC50: 500 to 5000 nM

CC(C)(Cc1ccc(F)cc1)NC(=O)CC(N)c1ccc(C(=O)Nc2ccncc2)cc1 (stereo unspecified)
IC50: 50 to 500 nM

NC(CNC(=O)C1CCCO1)c1ccc(C(=O)Nc2ccncc2)cc1 (stereo unspecified)
IC50: 500 to 5000 nM

COc1cccc(C(=O)NCC(N)c2ccc(C(=O)Nc3ccncc3)cc2)c1 (stereo unspecified)
IC50: 500 to 5000 nM

NC(c1ccc(C(=O)Nc2ccncc2)cc1)C1CCCN1C(=O)C1CC(=O)c2ccccc21 (stereo unspecified)
IC50: 500 to 5000 nM

NC(CNC(=O)c1cc2ccccc2[nH]1)c1ccc(C(=O)Nc2ccncc2)cc1 (stereo unspecified)
IC50: 500 to 5000 nM

NC(CNC(=O)c1ccccc1Nc1ccccc1)c1ccc(C(=O)Nc2ccncc2)cc1 (stereo unspecified)
IC50: 500 to 5000 nM

CN(CC(N)c1ccc(C(=O)Nc2ccncc2)cc1)C(=O)C1CCOc2ccc(Cl)cc21 (stereo unspecified)
IC50: 500 to 5000 nM

Cc1ccc(CCNC(=O)CC(N)c2ccc(C(=O)Nc3ccncc3)cc2)cc1 (stereo unspecified)
IC50: 50 to 500 nM

NC(CNC(=O)c1ccccn1)c1ccc(C(=O)Nc2ccncc2)cc1 (stereo unspecified)
IC50: 500 to 5000 nM

CC(C)(C)NC(=O)NCC(N)c1ccc(C(=O)Nc2ccncc2)cc1 (stereo unspecified)
IC50: 500 to 5000 nM

NC(CNC(=O)C1(c2ccc(Cl)c(Cl)c2)CCC1)c1ccc(C(=O)Nc2ccncc2)cc1 (stereo unspecified)
IC50: 50 to 500 nM

NC(CC(=O)NCc1ccc(F)c(C(F)(F)F)c1)c1ccc(C(=O)Nc2ccncc2)cc1 (stereo unspecified)
IC50: 50 to 500 nM

CC(C)(C(=O)NCC(N)c1ccc(C(=O)Nc2ccncc2)cc1)c1ccsc1 (stereo unspecified)
IC50: 50 to 500 nM

COc1ccc2c(c1)CCCC2C(=O)NCC(N)c1ccc(C(=O)Nc2ccncc2)cc1 (stereo unspecified)
IC50: 50 to 500 nM

COc1ccc(C2(C(=O)N3CCCC3C(N)c3ccc(C(=O)Nc4ccncc4)cc3)CCCC2)cc1 (stereo unspecified)
IC50: 500 to 5000 nM

NC(c1ccc(C(=O)Nc2ccncc2)cc1)C1CCCN1C(=O)C1CCCCc2ccc(F)cc21 (stereo unspecified)
IC50: 5000 to 50000 nM

CC(C)(C(=S)NCC(N)c1ccc(C(=O)Nc2ccncc2)cc1)c1ccc(F)cc1 (stereo unspecified)
IC50: 50 to 500 nM

NC(CC(=O)NCCn1cccn1)c1ccc(C(=O)Nc2ccncc2)cc1 (stereo unspecified)
IC50: 50 to 500 nM

Cc1cccc(CC(=O)N2CCCC2C(N)c2ccc(C(=O)Nc3ccncc3)cc2)c1 (stereo unspecified)
IC50: 500 to 5000 nM

CN(CC(N)c1ccc(C(=O)Nc2ccncc2)cc1)C(=O)Cc1cccc(Cl)c1 (stereo unspecified)
IC50: 500 to 5000 nM

NC(CC(=O)NCCc1cccs1)c1ccc(C(=O)Nc2ccncc2)cc1 (stereo unspecified)
IC50: 50 to 500 nM

COc1ccccc1CNC(=O)CC(N)c1ccc(C(=O)Nc2ccncc2)cc1 (stereo unspecified)
IC50: 50 to 500 nM

NC(CC(=O)NCCc1ccc(F)cc1)c1ccc(C(=O)Nc2ccncc2)cc1 (stereo unspecified)
IC50: 50 to 500 nM

NC(CNC(=O)CCC1CCCCC1)c1ccc(C(=O)Nc2ccncc2)cc1 (stereo unspecified)
IC50: 50 to 500 nM

NC(CNC(=S)Nc1ccccc1)c1ccc(C(=O)Nc2ccncc2)cc1 (stereo unspecified)
IC50: 50 to 500 nM

NC(CC(=O)NC(c1ccccc1)c1ccc(Cl)cc1)c1ccc(C(=O)Nc2ccncc2)cc1 (stereo unspecified)
IC50: 50 to 500 nM

CNS(=O)(=O)c1ccc(C(=O)NCC(N)c2ccc(C(=O)Nc3ccncc3)cc2)cc1 (stereo unspecified)
IC50: 500 to 5000 nM

NC(CNC(=O)c1cccc(Cl)c1)c1ccc(C(=O)Nc2ccncc2)cc1 (stereo unspecified)
IC50: 500 to 5000 nM

NC(CC(=O)NCc1ccc(Cl)cc1Cl)c1ccc(C(=O)Nc2ccncc2)cc1 (stereo unspecified)
IC50: 50 to 500 nM

CC(C)(C(=O)NCC(N)c1ccc(C(=O)Nc2ccncc2)cc1)c1ccc(Cl)cc1F (stereo unspecified)
IC50: 50 to 500 nM

COc1ccc2[nH]c(C(=O)NCC(N)c3ccc(C(=O)Nc4ccncc4)cc3)cc2c1 (stereo unspecified)
IC50: 500 to 5000 nM

CN(CC(N)c1ccc(C(=O)Nc2ccncc2)cc1)C(=O)Cc1ccc(O)c([N+](=O)[O-])c1 (stereo unspecified)
IC50: 50 to 500 nM

CC(C)(C)c1ccc(NC(=O)NCC(N)c2ccc(C(=O)Nc3ccncc3)cc2)cc1 (stereo unspecified)
IC50: 500 to 5000 nM

NC(CNC(=O)c1cccc(F)c1)c1ccc(C(=O)Nc2ccncc2)cc1 (stereo unspecified)
IC50: 500 to 5000 nM

CC(C)(C(=O)N1CCCC1C(N)c1ccc(C(=O)Nc2ccncc2)cc1)c1cccs1 (stereo unspecified)
IC50: 500 to 5000 nM

CC(C)(C)ON=Cc1cccc(C(=O)NCC(N)c2ccc(C(=O)Nc3ccncc3)cc2)c1 (stereo unspecified)
IC50: 500 to 5000 nM

NC(c1ccc(C(=O)Nc2ccncc2)cc1)C1CCCN1C(=O)C1(c2ccc(F)cc2)CC1 (stereo unspecified)
IC50: 500 to 5000 nM

Cc1ccc(C)c(CC(=O)NCC(N)c2ccc(C(=O)Nc3ccncc3)cc2)c1 (stereo unspecified)
IC50: 500 to 5000 nM

NC(CC(=O)NCCc1ccc(Cl)cc1Cl)c1ccc(C(=O)Nc2ccncc2)cc1 (stereo unspecified)
IC50: 50 to 500 nM

NC(CC(=O)NCc1ccncc1)c1ccc(C(=O)Nc2ccncc2)cc1 (stereo unspecified)
IC50: 50 to 500 nM

CN(CC(N)c1ccc(C(=O)Nc2ccncc2)cc1)C(=O)C(C)(C)c1cccs1 (stereo unspecified)
IC50: 500 to 5000 nM

NC(c1ccc(C(=O)Nc2ccncc2)cc1)C1CCCN1C(=O)Cc1cccs1 (stereo unspecified)
IC50: 50 to 500 nM

NC(CNC(=O)C1(c2ccc(F)cc2)CC1)c1ccc(C(=O)Nc2ccncc2)cc1 (stereo unspecified)
IC50: < 200 nM

COc1ccc(CC(=O)N2CCCC2C(N)c2ccc(C(=O)Nc3ccncc3)cc2)cc1F (stereo unspecified)
IC50: 500 to 5000 nM

NC(c1ccc(C(=O)Nc2ccncc2)cc1)C1CCCN1C(=O)Cc1ccc(Cl)cc1F (stereo unspecified)
IC50: 500 to 5000 nM

CN(CC(N)c1ccc(C(=O)Nc2ccncc2)cc1)C(=O)Cc1ccc(F)cc1Cl (stereo unspecified)
IC50: 500 to 5000 nM

NC(CC(=O)NCCc1ccc2c(c1)Cc1ccccc1-2)c1ccc(C(=O)Nc2ccncc2)cc1 (stereo unspecified)
IC50: 50 to 500 nM

NC(CC(=O)NCc1ccc(F)cc1Cl)c1ccc(C(=O)Nc2ccncc2)cc1 (stereo unspecified)
IC50: 50 to 500 nM

CN(CC(N)c1ccc(C(=O)Nc2ccncc2)cc1)C(=O)Cc1ccccc1 (stereo unspecified)
IC50: 500 to 5000 nM

COc1ccc(NC(=O)CC(N)c2ccc(C(=O)Nc3ccncc3)cc2)cc1 (stereo unspecified)
IC50: 50 to 500 nM

N[C@H](CC(=O)N[C@@H]1CCCc2ccccc21)c1ccc(C(=O)Nc2ccncc2)cc1
IC50: < 50 nM

CN(CC(N)c1ccc(C(=O)Nc2ccncc2)cc1)C(=O)C1(c2ccccc2)CC1 (stereo unspecified)
IC50: 500 to 5000 nM

CC(C)(C(=O)NCC(N)c1ccc(C(=O)Nc2ccncc2)cc1)c1ccc(Cl)c(Cl)c1 (stereo unspecified)
IC50: 50 to 500 nM

NC(CNC(=O)Cc1ccc(-c2ccccc2)cc1)c1ccc(C(=O)Nc2ccncc2)cc1 (stereo unspecified)
IC50: 500 to 5000 nM

Cc1ccccc1CC(=O)NCC(N)c1ccc(C(=O)Nc2ccncc2)cc1 (stereo unspecified)
IC50: 50 to 500 nM

NC(CNC(=O)c1csc(Nc2ccc(F)cc2)n1)c1ccc(C(=O)Nc2ccncc2)cc1 (stereo unspecified)
IC50: 500 to 5000 nM

COCCNC(=O)CC(N)c1ccc(C(=O)Nc2ccncc2)cc1 (stereo unspecified)
IC50: 50 to 500 nM

NC(CNC(=O)c1csc(-c2ccccc2)n1)c1ccc(C(=O)Nc2ccncc2)cc1 (stereo unspecified)
IC50: 500 to 5000 nM

NC(CNC(=O)[C@H]1CCC(=O)N1)c1ccc(C(=O)Nc2ccncc2)cc1 (stereo partly specified)
IC50: 50 to 500 nM

Cc1cccc(CNC(=O)CC(N)c2ccc(C(=O)Nc3ccncc3)cc2)c1 (stereo unspecified)
IC50: 50 to 500 nM

NC(c1ccc(C(=O)Nc2ccncc2)cc1)C1CCCN1C(=O)C1CCSc2ccc(F)cc21 (stereo unspecified)
IC50: 500 to 5000 nM

NC(CNC(=O)C1Cc2ccccc21)c1ccc(C(=O)Nc2ccncc2)cc1 (stereo unspecified)
IC50: 50 to 500 nM

CN(CC(N)c1ccc(C(=O)Nc2ccncc2)cc1)C(=O)Cc1cncc(Br)c1 (stereo unspecified)
IC50: 500 to 5000 nM

NC(CC(=O)NCCc1cccc(Cl)c1)c1ccc(C(=O)Nc2ccncc2)cc1 (stereo unspecified)
IC50: 50 to 500 nM

NC(c1ccc(C(=O)Nc2ccncc2)cc1)C1CCCN1C(=O)Cc1ccc(Cl)cc1Cl (stereo unspecified)
IC50: 500 to 5000 nM

NC(CNC(=O)C1(c2ccc(Cl)c(Cl)c2)CC1)c1ccc(C(=O)Nc2ccncc2)cc1 (stereo unspecified)
IC50: 50 to 500 nM

COc1ccc(C2(C(=O)NCC(N)c3ccc(C(=O)Nc4ccncc4)cc3)CCCC2)cc1 (stereo unspecified)
IC50: 50 to 500 nM

COc1cc(OC)cc(C(=O)NCC(N)c2ccc(C(=O)Nc3ccncc3)cc2)c1 (stereo unspecified)
IC50: 500 to 5000 nM

NC(CNC(=O)CC1CCCC1)c1ccc(C(=O)Nc2ccncc2)cc1 (stereo unspecified)
IC50: 500 to 5000 nM

N[C@@H](CC(=O)N[C@@H]1CCCc2ccccc21)c1ccc(C(=O)Nc2ccncc2)cc1
IC50: 50 to 500 nM

NC(CNC(=O)c1ccc2ccccc2n1)c1ccc(C(=O)Nc2ccncc2)cc1 (stereo unspecified)
IC50: 50 to 500 nM

CN(CC(N)c1ccc(C(=O)Nc2ccncc2)cc1)C(=O)C1(c2ccc(Cl)cc2)CCC1 (stereo unspecified)
IC50: 500 to 5000 nM

CN(CCO)C(=O)CC(N)c1ccc(C(=O)Nc2ccncc2)cc1 (stereo unspecified)
IC50: 50 to 500 nM

NC(CNC(=O)c1ccc(Oc2ccccc2)cc1)c1ccc(C(=O)Nc2ccncc2)cc1 (stereo unspecified)
IC50: 500 to 5000 nM

NC(c1ccc(C(=O)Nc2ccncc2)cc1)C1CCCN1C(=O)C1(c2ccc(Cl)cc2Cl)CC1 (stereo unspecified)
IC50: 500 to 5000 nM

Source: the Kinase Knowledgebase extract (Sharma et al. 2016)
